Results taken from patent US20240245668A1, “AGENT FOR TREATING OR PREVENTING GLAUCOMA INCLUDING A SULFONAMIDE COMPOUND AND ANOTHER DRUG” (SANTEN PHARMACEUTICAL CO., LTD., priority 2012, published 2024).

Tests used:
[1] = system: monkeys with normal intraocular pressure; assay: Intraocular pressure lowering effect, present compound and brimonidine concomitantly administered to monkeys; assay type: in vivo, Cynomolgus monkey; conditions: male cynomolgus monkeys, instillation into one eye, 0.0006 w/v % present compound solution 20 μL, ALPHAGAN P (0.15%) 20 μL
Description: In order to study the usefulness of a combination of the present compound with an α2-receptor agonist, an intraocular pressure lowering effect when the present compound and brimonidine were concomitantly administered to experimental animals (monkeys with normal intraocular pressure) was examined.
An intraocular pressure lowering effect when the present compound and brimonidine were concomitantly administered was examined. As comparison subjects, intraocular pressure lowering effects when the present compound or brimonidine was administered singly were also examined. As a control, the base and physiological saline were administered.
(§1) Present compound solution: a 0.0006 w/v % present compound solution (instillation amount: 20 μL) […]
(§2) • (1) One drop of a 0.4% oxybuprocaine hydrochloride eye drop (trade name: Benoxil (registered trademark) eye drop (0.4%)) was instilled into both eyes of each experimental animal to effect local anesthesia. • (2) Intraocular pressure was measured immediately before administering the test compound solution, and the measured intraocular pressure was defined as initial intraocular pressure. • (3) The present compound solution was instilled into one eye of each experimental animal (the other eye was not treated). […] The intraocular pressure was measured in triplicate for each eye to obtain an average of three measurements, which is shown as the result. […]

[2] = system: monkeys with normal intraocular pressure; assay: Intraocular pressure lowering effect, present compound and latanoprost concomitantly administered to monkeys; assay type: in vivo, Cynomolgus monkey; conditions: male cynomolgus monkeys, instillation into one eye, 0.0006 w/v % present compound solution 20 μL, Xalatan eye drop (0.005%) 20 μL
Description: In order to study the usefulness of a combination of the present compound with a prostaglandin, an intraocular pressure lowering effect when the present compound and latanoprost were concomitantly administered to experimental animals (monkeys with normal intraocular pressure) was examined.
An intraocular pressure lowering effect when the present compound and latanoprost were concomitantly administered was examined. As comparison subjects, intraocular pressure lowering effects when the present compound or latanoprost was administered singly were also examined. As a control, the base and physiological saline were administered.
as §1
as §2, with “The intraocular measured in” for “The intraocular pressure was measured in”

[3] = system: rabbits with normal intraocular pressure; assay: Intraocular pressure lowering effect, present compound and timolol concomitantly administered to rabbits; assay type: in vivo, Japanese white rabbit; conditions: male JW rabbits, instillation into one eye, 0.001 w/v % present compound solution 50 μL, Timoptol eye drop (0.5%) 50 μL
Description: In order to study the usefulness of the combination of the present compound with a β-receptor antagonist, an intraocular pressure lowering effect when the present compound and timolol were concomitantly administered to experimental animals (rabbits with normal intraocular pressure) was examined.
An intraocular pressure lowering effect when the present compound and timolol were concomitantly administered was examined. As comparison subjects, intraocular pressure lowering effects when the present compound or timolol was administered singly were also examined. As a control, the base and physiological saline were administered.
Present compound solution: a 0.001 w/v % present compound solution (instillation amount: 50 μL) […]
as §2

[4] = system: monkeys with normal intraocular pressure; assay: Intraocular pressure lowering effect, present compound and brinzolamide concomitantly administered to monkeys; assay type: in vivo, Cynomolgus monkey; conditions: male cynomolgus monkeys, instillation into one eye, 0.0006 w/v % present compound solution 20 μL, Azopt Ophthalmic Suspension (1%) 20 μL
Description: In order to study the usefulness of a combination of the present compound with a carbonic anhydrase inhibitor, an intraocular pressure lowering effect when the present compound and brinzolamide were concomitantly administered to experimental animals (monkeys with normal intraocular pressure) was examined.
An intraocular pressure lowering effect when the present compound and brinzolamide were concomitantly administered was examined. As comparison subjects, intraocular pressure lowering effects when the present compound or brinzolamide was administered singly were also examined. As a control, the base and physiological saline were administered.
as §1, §2

Structure (SMILES)	Intraocular pressure lowering degree (change relative to average of control group) at 2 hours after instillation [1]	Intraocular pressure lowering degree (change relative to average of control group) at 8 hours after instillation [2]	Intraocular pressure lowering degree (change relative to average of control group) at 4 hours after instillation [3]	Intraocular pressure lowering degree (change relative to average of control group) at 4 hours after instillation [4]
Brc1c(NC2=NCCN2)ccc2nccnc12 [Brimonidine, brimonidine]	1.8 mmHg	–	–	–
CC(C)OC(=O)CNc1cccc(CN(Cc2ccc(-n3cccn3)cc2)S(=O)(=O)c2cccnc2)n1 [Present compound, isopropyl (6-{[4-(pyrazol-1-yl)benzyl](pyridin-3-ylsulfonyl)aminomethyl}pyridin-2-ylamino) acetate]	2.6 mmHg	1.6 mmHg	1.6 mmHg	2.5 mmHg
CC(C)OC(=O)CCC/C=C\C[C@@H]1[C@@H](CC[C@@H](O)CCc2ccccc2)[C@H](O)C[C@@H]1O [Latanoprost, latanoprost]	–	1.5 mmHg	–	–
CC(C)(C)NC[C@H](O)COc1nsnc1N1CCOCC1 [Timolol, timolol]	–	–	2.3 mmHg	–
CCN[C@H]1CN(CCCOC)S(=O)(=O)c2sc(S(N)(=O)=O)cc21 [Brinzolamide, brinzolamide]	–	–	–	1.6 mmHg
